Measurements as given in US12144791B2, “KRAS agonists, pharmaceutical compositions, and uses in managing cancer” (Emory University, priority 2019, dated 2024).

Key:
KRAS G12C = KRAS G12C (Homo sapiens, UniProt P01116, G12C); assay: Thermal shift assay, purified KRAS G12C; type: binding; conditions: increasing concentrations
Description: (§1) Melting temperature (Tm) values of DMSO Ctrl and 15 μM of KRA-533 are shown.
(§2) To test whether KRA-533 directly binds to KRAS, a thermal shift assay was employed. […] To further assess whether KRA-533 activates KRAS directly, an in vitro cell-free GDP-GTP exchange experiment was carried out. Purified WT, G12C, G12D or G13D mutant KRAS proteins were incubated with purified GEF (RASGRP1) and GAP (RASA1) proteins in reaction buffer containing [γ-35S]-GTP in the absence or presence of increasing concentrations of KRA-533 at 25° C. for 60 min. KRAS activity was quantified by liquid scintillation counting. […] These findings indicate that KRA-533 not only activates WT KRAS but also has the capacity to further enhance KRAS activity of mutant KRAS.

KRAS G12D = KRAS G12D (Homo sapiens, UniProt P01116, G12D); assay: Thermal shift assay, purified KRAS G12D; type: binding; conditions: increasing concentrations
Description: as §1, §2

KRAS S17A [1] = molecular target: T1, KRAS S17A (Homo sapiens, UniProt P01116, S17A); assay: Thermal shift assay, purified KRAS S17A; type: binding
T1 construct: made in house
Description: Melting temperature (Tm) values of DMSO control and 15 μM KRA-533 are shown.
(§3) To further test this intracellularly, GFP-tagged WT, S17A, K117A and AA KRAS mutants were exogenously transfected into A549 cells. […] Activities of exogenous GFP-tagged WT and KRAS mutants were analyzed by Western blot using GFP antibody.

KRAS G13D = KRAS G13D (Homo sapiens, UniProt P01116, G13D); assay: In vitro cell-free GDP-GTP exchange, KRAS G13D; type: biochemical; conditions: with GEF (RASGRP1) and GAP (RASA1), 25° C., 60 min
Description: GTPγS, purified GFP (RASGRP1, 180 nM) and GAP (RASA1, 180 nM) at 25° C. in the presence or absence of increasing concentrations of KRA-533.
as §2

KRAS S17A [2] = molecular target: T1, KRAS S17A; assay: In vitro cell-free GDP-GTP exchange, KRAS S17A; type: biochemical; conditions: 15 μM
Description: GTPγS, purified GFP (RASGRP1, 180 nM) and GAP (RASA1, 180 nM) at 25° C. in the presence or absence of 15 μM KRA-533. The radioactivity remaining on the protein after intensive washing was quantified by liquid scintillation.
as §3

GFP-tagged KRAS WT = molecular target: T2, GFP-tagged KRAS WT (Homo sapiens, UniProt P01116); assay: Raf-1-RBD pull-down of exogenous GFP-tagged KRAS WT in A549 cells; type: cell-based; conditions: 15 μM, 48 h
T2 construct: expressed in transfected cells; host or cells: A549
Description: (§4) The GFP-tagged exogenous KRAS-GTP (GFP-KRAS-GTP) was analyzed by Western blot using anti-GFP antibody.
as §3

GFP-tagged KRAS S17A = molecular target: T3, GFP-tagged KRAS S17A (Homo sapiens, UniProt P01116, S17A); assay: Raf-1-RBD pull-down of exogenous GFP-tagged KRAS S17A in A549 cells; type: cell-based; conditions: 15 μM, 48 h
T3 construct: expressed in transfected cells; host or cells: A549
Description: as §4, §3

[3] = system: A549, H157, Calu-1 and H292 cells; assay: Apoptosis by FACS analysis of Annexin V/PI staining; type: cell-based, human
Description: (§5) Activated KRAS can trigger cell death via apoptosis and autophagy-associated cell death in cancer cells. To test whether KRA-533- activated KRAS promotes apoptosis and autophagic cell death, A549, H157, Calu-1 and H292 cells were treated with increasing concentrations of KRA-533 for 48 h, followed by analysis of KRAS activity, apoptosis and autophagy. […] Autophagy was measured by analysis of LC3-I/LC3-II and p62 following treatment of cells with KRA-533. It is well known that p62 is an autophagy receptor or substrate that can be degraded by autophagy. In addition to LC3-II, p62 was analyzed as another autophagy marker. […] To further quantify the level of autophagy, a GFP-LC3 construct was used to indicate autophagosomes. After treatment with KRA-533, GFP-LC3 redistributed from a diffuse staining pattern in the cytoplasm and nucleus to a cytoplasmic punctate structure that specifically labels pre-autophagosomal and autophagosomal membranes (i.e. GFP-LC3 vac cells). […] These findings indicate that, in addition to apoptosis, KRA-533 can also induce autophagic cell death.

[4] = system: A549, H157, Calu-1 and H292 cells; assay: GFP-LC3 autophagosome quantification; type: cell-based, human; conditions: 48 h
Description: After 24 h, cells were treated with KRA-533 for 48 h. The percentages of LC3-GFP-transfected cells bearing LC3-GFP aggregates (LC3-FGPvac) were quantified as shown.
as §5

[5] = system: lung tumors of LSL-KRASG12D LKB1fl/fl (KL) mice; assay: Genetically engineered LSL-KRASG12D LKB1fl/fl (KL) mouse model; type: in vivo
Description: After administration of adenovirus Cre recombinase in KL mice for 6 weeks, mice were treated with KRA-533 (20 mg/kg/d) for 8 weeks (n=6 each group). Survival of mice was calculated up to 8 weeks before euthanization in the control group versus the KRA-533 treatment group.
It is reported that the co-occurrence of KRAS and LKB1(STK11) mutations could label a more aggressive molecular subtype of NSCLC. Around half of KRAS-mutant lung cancer patients also carry LKB1 mutations, therefore, it will be important to test whether KRA-533 is also effective for the treatment of KRAS-mutant lung cancers with mutation or loss. LSL-KRASG12D LKB1fl/fl (KL) mice were generated by intercrossing B6.129S4-Krastm3Tyj/J (KRASG12D) and FVB; 129S6-Stk11tm1Rdp/Nci (LKB1) strains two generations and genotyped to confirm homozygosity for the LKB1 allele. These mice contain a KRASG12D LSL knock-in allele and a floxed allele of LKB1 (LKB1fl/fl). KRA-533 (20 mg/kg/d) or vehicle control was administered i.p. starting at 6 weeks post AdeCre delivery. After treatment for 8 weeks, mice were euthanized, and lung tumors were analyzed as described above.

Compound: O=C(CBr)NCCCCc1ccc(C(=O)O)cc1 [KRA-533, 4-(4-(2-bromoacetamido)butyl)benzoic acid]
- melting temperature (Tm) / binding, KRAS G12C (KRAS G12C): Dose dependent increases in melting temperature (Tm)
- melting temperature (Tm) / binding, KRAS G12D (KRAS G12D): Dose dependent increases in melting temperature (Tm)
- binding (thermal shift), KRAS S17A (KRAS S17A [1]): could bind
- KRAS activity (liquid scintillation), KRAS G13D (KRAS G13D): further enhanced the activities of active KRAS mutants
- KRAS activity (liquid scintillation), KRAS S17A (KRAS S17A [2]): directly activated
- activity of exogenous GFP-tagged WT KRAS (GFP-KRAS-GTP) (GFP-tagged KRAS WT): activated exogenous WT and S17A
- activity of exogenous GFP-tagged S17A KRAS (GFP-KRAS-GTP) (GFP-tagged KRAS S17A): activated exogenous WT and S17A
- apoptotic cell death (Annexin V/PI) ([3]; 0, 5, 10, 15 μM, 48 h): leading to apoptotic cell death
- sensitivity to KRAS activation, induction of apoptosis and autophagy, KRAS mutant cells versus H292 ([3]; A549, H157 and Calu-1 vs H292, 48 h): significantly more sensitive than H292 cells without KRAS mutation
- percentage of GFP-LC3vac cells [4]: enhanced the percentage of GFP-LC3vac cells in a dose-dependent manner
- tumor growth ([5]; 20 mg/kg/d i.p. from 6 weeks post AdeCre, 8 weeks): significantly suppressed tumor growth
- survival ([5]; 20 mg/kg/d i.p., up to 8 weeks): prolonged survival
